Source: PubChem BioAssay (NCI)
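Grown in 96-well plates, cells were treated for 48 hours with each compound at five concentrations. Insufficient inhibition: endpoint recorded as highest concentration tested. Abbreviation: GI50, concentration required for 50% inhibition of growth. TGI: total growth inhibition.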

Assays:
Test in all cases: growth of human tumour cells (NCI), 48 h
M14 melanoma = test system: M14 melanoma
SF-295 CNS = test system: SF-295 CNS
SK-MEL-2 melanoma = test system: SK-MEL-2 melanoma
TK-10 renal = test system: TK-10 renal
EKVX NSCLC = test system: EKVX NSCLC
SW-620 colon = test system: SW-620 colon
HT29 colon = test system: HT29 colon
HOP-62 NSCLC = test system: HOP-62 NSCLC
NCI-H522 lung = test system: NCI-H522 lung
CAKI-1 renal = test system: CAKI-1 renal

Compound	TGI (M14 melanoma) [µM]	TGI (SF-295 CNS) [µM]	TGI (SK-MEL-2 melanoma) [µM]	TGI (TK-10 renal) [µM]	TGI (EKVX NSCLC) [µM]	TGI (SW-620 colon) [µM]	TGI (HT29 colon) [µM]	GI50 (SF-295 CNS) [µM]	GI50 (SK-MEL-2 melanoma) [µM]	GI50 (HOP-62 NSCLC) [µM]	TGI (HOP-62 NSCLC) [µM]	GI50 (NCI-H522 lung) [µM]	TGI (NCI-H522 lung) [µM]	GI50 (CAKI-1 renal) [µM]	TGI (CAKI-1 renal) [µM]	GI50 (TK-10 renal) [µM]	GI50 (EKVX NSCLC) [µM]	GI50 (SW-620 colon) [µM]	GI50 (HT29 colon) [µM]	GI50 (M14 melanoma) [µM]
COC(=O)[C@@]12C3=NO[C@]1(C(=O)OC)C(O[Si](C)(C)C(C)(C)C)C1OC(C)(C)OC1[C@@H]2[C@@H](OCc1ccccc1)CC3 (stereo partly drawn)	> 100	> 100	> 100	> 100	> 100	> 100	> 100	–	–	–	–	–	–	–	–	–	–	–	–	–
COc1ccc2c(c1)C(=O)/C(=C/c1ccc(OCC(=O)c3ccc(Cl)cc3)cc1)O2	–	> 100	99.9	43.4	> 100	10.6	40.7	30.9	26.7	43.8	> 100	3.77	15.7	16.4	90.1	26.5	25.6	3.48	20.1	–
O=c1[nH]cnc2c1nnn2C1C=C(CO)C(O)C1O (stereo not drawn)	> 100	> 100	> 100	> 100	> 100	–	> 100	–	–	–	> 100	–	–	–	> 100	–	–	–	–	–
Cc1cc(C)c2c(c1C)CN1CN2Cc2c(C)c(C)cc(C)c21	> 100	> 100	–	> 100	> 100	> 100	> 100	–	–	–	> 100	–	> 100	–	> 100	–	–	–	–	–
Nc1ccc(C(=O)O)c2[nH]c3ccccc3c(=O)c12	> 100	> 100	> 100	> 100	–	> 100	> 100	–	–	–	> 100	–	> 100	–	> 100	–	–	–	–	–
CC1(C)CC[C@]2(C(=O)O)CCC3(C)C(=CCC4[C@@]5(C)CC[C@H](OC6OCC(O)C(O)C6OC6OC(CO)C(O)C(O)C6O)C(C)(C)C5CC[C@]43C)C2C1 (stereo partly drawn)	3.45	3.42	–	4.42	3.85	4.03	5.23	–	–	–	4.16	–	–	–	3.06	–	–	–	–	–
c1ccc(CNc2nc(Nc3ccc(-c4nc5ccccc5[nH]4)cc3)c3cn[nH]c3n2)cc1	3.81	3.84	–	8.35	23.6	6.62	5.57	1.7	–	2.17	5.48	2.24	5.68	2.13	5.47	2.93	3.27	2.69	2.09	1.72
CC(=O)[CH-]C(=O)c1ccccc1.CC(=O)[CH-]C(=O)c1ccccc1.[O-]Cc1cccs1.[O-]Cc1cccs1.[Ti+4]	> 100	71.9	> 100	–	> 100	> 100	46.6	10.6	> 100	> 100	> 100	54.2	> 100	71.6	> 100	–	37.4	49.9	17.5	21.6
Oc1ccc(-c2nc(-c3ccc(F)cc3)c(-c3ccncc3)[nH]2)cc1	20.3	> 100	–	> 100	> 100	> 100	> 100	20.2	–	36.7	> 100	–	–	–	–	7.89	13.6	32.1	3.78	4.02
O=C1/C(=C/c2ccccc2Cl)COc2ccccc21	–	37.6	29	27.1	29.7	20.8	45.1	–	–	–	35	–	30.5	–	–	–	–	–	–	–
COc1ccccc1NS(=O)(=O)c1cc(C(C)(C)C)ccc1OCCOc1ccc(C(C)(C)C)cc1S(=O)(=O)Nc1ccccc1OC	> 100	> 100	> 100	> 100	> 100	> 100	> 100	–	–	–	> 100	–	–	–	> 100	–	–	–	–	–
CC/C(=C(/CC)c1ccc(OP(=O)([O-])[O-])cc1)c1ccc(OP(=O)([O-])[O-])cc1.N.N.N.N.[Pt+4].[Pt+4]	6.87	12.2	> 100	> 100	41.9	62.2	90.3	1.91	13.1	1.75	13.6	–	–	–	–	4.73	7.77	5.19	16.9	1.63
CC1(C)CC(C2CC(C)(C)CC(C)(C)[C@H]2O)[C@@H](O)C(C)(C)C1 (stereo partly drawn)	> 100	> 100	–	> 100	> 100	> 100	> 100	–	–	–	–	–	> 100	–	–	–	–	–	–	–
COc1ccc(C=O)c(N(C)C(=O)C(C)(C)C)c1	> 100	> 100	> 100	> 100	> 100	> 100	> 100	–	–	–	> 100	–	> 100	–	–	–	–	–	–	–
Cc1ccc(S(=O)(=O)OC(C=O)C(O)C(O)COC(c2ccccc2)(c2ccccc2)c2ccccc2)cc1 (stereo not drawn)	30.1	24.8	29.9	–	34.5	35.2	24.9	–	–	–	30.8	–	26.3	–	36.6	–	–	–	–	–
COC(=O)C1(c2ccc(OC)cc2)NC(c2ccccc2)C2C(=O)N(c3ccc(OC)cc3)C(=O)C21 (stereo not drawn)	> 100	> 100	> 100	> 100	> 100	> 100	> 100	–	–	–	–	–	> 100	–	> 100	–	–	–	–	–
C[C@@H](Oc1cc(-n2cnc3ccc(OCC4CCN(C)CC4)cc32)sc1C(N)=O)c1ccccc1C(F)(F)F	1.25	3.39	–	3.98	5.04	3.5	2.63	0.138	–	0.0994	3.11	0.0472	0.236	1.91	5.23	0.427	0.653	0.0648	0.0721	0.0879
Cc1ccc(NC(=O)CCC(=O)C2CC(=O)CCC2=O)cc1C (stereo not drawn)	> 100	> 100	> 100	> 100	> 100	> 100	> 100	–	–	–	> 100	–	–	–	> 100	–	–	–	–	–
